This note sets out measurements from ChEMBL document CHEMBL1129301, “Synthesis and biological evaluation of DL-4,4-difluoroglutamic acid and DL-gamma,gamma-difluoromethotrexate” (J Med Chem, 1996).

For experiment [1], the system named is CCRF-CEM. Put plainly: Growth inhibition of CCRF-CEM subline resistant to MTX solely as a result of decreased MTX influx during continuous (120 h) exposure. The experiment is classed as functional. The note with it: Homo sapiens, read-out: ED50 (the source's name).
In experiment [2] the test system is CCRF-CEM. Description: Growth inhibition of CCRF-CEM subline resistant to MTX solely as a result of decreased polyglutamylation during continuous (120 h) exposure. In kind it is functional. The settings on record: Homo sapiens, read-out: ED50 (the source's name).
For the next experiment, the target named is T1, Dihydrofolate reductase (Homo sapiens, UniProt P00374).
T1 sequence (P00374 whole entry): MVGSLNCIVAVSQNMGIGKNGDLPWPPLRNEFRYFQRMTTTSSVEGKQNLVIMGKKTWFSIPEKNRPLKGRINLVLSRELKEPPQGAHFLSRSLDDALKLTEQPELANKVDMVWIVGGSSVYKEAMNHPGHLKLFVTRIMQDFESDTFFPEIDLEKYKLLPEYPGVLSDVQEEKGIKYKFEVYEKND
Put plainly: Inhibitory activity against purified human dihydrofolate reductase (DHFR) in human leukemia cells (CCRF-CEM).

Experiment [3] has as its system CCRF-CEM. Put plainly: Compound was evaluated for growth inhibition of parental CCRF-CEM during continuous (120 h) exposure to MTX. The experiment is classed as functional. The settings on record: Homo sapiens, read-out: ED50 (the source's name).
Experiment [4] concerns CCRF-CEM. Put plainly: Growth inhibition of CCRF-CEM subline resistant to MTX solely as a result of a 25-fold increase in wild-type DHFR activity during continuous (120 h) exposure to MTX. The experiment is classed as functional. The settings on record: Homo sapiens, read-out: ED50 (the source's name).
Experiment [5] deals with CCRF-CEM. Description: cells. The note with it: Homo sapiens, 3 h.

The structures appear in SMILES notation.

With `CN(Cc1cnc2nc(N)nc(N)c2n1)c1ccc(C(=O)NC(CC(F)(F)C(=O)O)C(=O)O)cc1` (stereo not drawn), the EC50 was determined as 2150 nM in the experiment with CCRF-CEM [1], 24.3 nM in the experiment with CCRF-CEM [2], 29 nM in the experiment with CCRF-CEM [3] and 700 nM in the experiment with CCRF-CEM [4]. Moreover, the IC50 (in general, the concentration at which inhibition is half-maximal) against Dihydrofolate reductase was determined as 1530 nM.

In turn, `Nc1nc(N)c2nc(CNc3ccc(C(=O)N[C@@H](CCC(=O)O)C(=O)O)cc3)cnc2n1` [AMINOPTERIN] showed an IC50 with CCRF-CEM [5] of 3000 nM.

As to `CN(Cc1cnc2nc(N)nc(N)c2n1)c1ccc(C(=O)N[C@@H](CCC(=O)O)C(=O)O)cc1` [METHOTREXATE], the figures for the EC50 in the experiment on CCRF-CEM [1] and in the experiment with CCRF-CEM [4] were 2550 nM and 655 nM, respectively.
